Test results as given in patent publication US20130243741A1, “RENILLA/GAUSSIA TRANSFECTED CELLS AS A LIGHT SOURCE FOR IN-SITU PHOTODYNAMIC THERAPY OF CANCER” (KANSAS STATE UNIVERSITY RESEARCH FOUNDATION, priority 2010, published 2013).

Tests used:
[1] = system: B16F10 mouse melanoma cells; test: LED/PDT irradiation experiment with MTT cell proliferation readout; format: cell-based; details: no irradiation, RuC2 at 8×10^−5 M
Experimental: LED-irradiation experiments employing RL5-B12120 Superbright LED's, (Qmax=470 nm, light output 0.0114±0.0008 W) and a light-attenuation system consisting of a series of parallel optical filters was performed. After trypsinization, B16F10 mouse melanoma cells were counted using a hemacytometer and the trypan blue exclusion method, and plated in tissue culture plates (TPP brand, Midwest Scientific). Four hours post-plating, RuC2, TCPP, or a 1:1 mixture of RuC2 and TCPP was added to the plates, with the 1:1 mixture containing each agent at half their respective concentrations to permit comparisons at the same molar concentrations of PDT-agents. The cells were then stored in the dark for 24 hours. Next, the cells were irradiated with high or low intensity of LED light for 45 min. Twenty-four hours post-radiation, MTT cell proliferation reagent (thiazolyl blue) was added to the cells, which were then incubated four hours. Next, SDS-solubilization buffer was added and the cells were incubated for 12 hours. The plates were then read using a plate reader (Spectramax 190) at 550 nm and 690 nm (background establishment).

[2] = cited from earlier work
[3] = system: 4T1luc2 breast cancer tumors; test: Deep-tissue PDT treatment of metastatic 4T1 breast cancer in mice; format: in vivo, BALB C mice; details: DFO 300 mg/kg i.p.; p-value: 0.65
Experimental: In this Example, PDT using in-situ generation of light was used to treat metastatic breast cancer in BALB C mice. ALA was used as the only photosensitizer/prodrug, and DFO was used as the iron chelator. The mice were divided into three treatment groups as follows. On Day 0, the mice were inoculated with 4T1luc2 breast cancer cells (100,000/mouse, i.v.). On Day 3, 25 million NSCs were plated as described above for transfection. On Day 4, the cells were transfected with Glue. On Day 5, IVIS imaging with D-luciferin was carried out in the morning to determine tumor size and stratification of the mice. In the afternoon, the mice in Groups 2 and 3 were injected with the transfected cells (1 million/mouse). On Day 7, DFO was administered i.p. (300 mg/kg), as described above. On Day 8, the photosensitizing agent, ALA, was injected i.p. (100 mg/kg). Four hours later, cyclodextrin-complexed coelenterazine was administered i.v. (100 μg) into the tail vein of each mouse. The ALA/coelenterazine procedure was repeated on Day 9, and then on Day 10. The control groups were injected with PBS.

[4] = Redox potentials of RuC2; format: physicochemical

## O=C(O)c1ccc(-c2c3nc(c(-c4ccc(C(=O)O)cc4)c4ccc([nH]4)c(-c4ccc(C(=O)O)cc4)c4nc(c(-c5ccc(C(=O)O)cc5)c5ccc2[nH]5)C=C4)C=C3)cc1 [TCPP, tetrakis-4-carboxyphenyl-porphyrin]
[1]
  growth inhibition in the absence of irradiation: zero

## O=c1c(Cc2ccc(O)cc2)nc2c(Cc3ccccc3)[nH]c(-c3ccc(O)cc3)cn1-2 [coelenterazine, 2-(4-hydroxybenzyl)-6-(4-hydroxyphenyl)-8-(phenylmethyl)imidazo[1,2-a]pyrazin-3(7H)-one]
[2]; commercially available material
  long-term stability: not long-term stable
[2]; native form
  water solubility: low

## CC(=O)N(O)CCCCCNC(=O)CCC(=O)N(O)CCCCCNC(=O)CCC(=O)N(O)CCCCCN [DFO, deferoxamine]
[3]
  effect of the iron chelator on tumor growth: mild effect in suppressing tumor growth

## O=C(O)CC[n+]1ccc(-c2ccnc(-c3cc(-c4cc[n+](CCC(=O)O)cc4)ccn3)c2)cc1.O=C(O)CC[n+]1ccc(-c2ccnc(-c3cc(-c4cc[n+](CCC(=O)O)cc4)ccn3)c2)cc1.O=C(O)CC[n+]1ccc(-c2ccnc(-c3cc(-c4cc[n+](CCC(=O)O)cc4)ccn3)c2)cc1.[Cl-].[Cl-].[Cl-].[Cl-].[Cl-].[Cl-].[Cl-].[Cl-].[Ru+2] [RuC2, Tris(N,N′″-bis(2-carboxyethyl)-4,4′:2,2″:4″,4′″-Quaterpyridine-N′N″-dium-N′,N′″) ruthenium(II)octachloride]
[1]
  growth inhibition in the absence of irradiation: approx. 20%
[4]
  E0 Ru^2+/1+: −0.477 V
  photochemical reduction potential E0*Ru^2+/1+: 1.670 V
[4]; vs. SHE, pH=7.0
  oxidation potential E0 Ru^3+/2: 1.537 V
